In ChEMBL document CHEMBL3860026, “Depsidones from Lichens as Natural Product Inhibitors of M-Phase Phosphoprotein 1, a Human Kinesin Required for Cytokinesis” (J Nat Prod, 2016) one finds half-life and inhibition data, which are given here for one compound.

Series [1] is described as follows: Half life in mouse liver microsomes at 3 uM by LC-MS/MS method. Format: ADME. Background: Liver microsomes are vesicles of endoplasmic reticulum, rich in cytochrome P450 enzymes.
Series [2] deals with T1, Kinesin-like protein KIF23 (Homo sapiens) (UniProt Q02241).
T1 sequence (whole entry): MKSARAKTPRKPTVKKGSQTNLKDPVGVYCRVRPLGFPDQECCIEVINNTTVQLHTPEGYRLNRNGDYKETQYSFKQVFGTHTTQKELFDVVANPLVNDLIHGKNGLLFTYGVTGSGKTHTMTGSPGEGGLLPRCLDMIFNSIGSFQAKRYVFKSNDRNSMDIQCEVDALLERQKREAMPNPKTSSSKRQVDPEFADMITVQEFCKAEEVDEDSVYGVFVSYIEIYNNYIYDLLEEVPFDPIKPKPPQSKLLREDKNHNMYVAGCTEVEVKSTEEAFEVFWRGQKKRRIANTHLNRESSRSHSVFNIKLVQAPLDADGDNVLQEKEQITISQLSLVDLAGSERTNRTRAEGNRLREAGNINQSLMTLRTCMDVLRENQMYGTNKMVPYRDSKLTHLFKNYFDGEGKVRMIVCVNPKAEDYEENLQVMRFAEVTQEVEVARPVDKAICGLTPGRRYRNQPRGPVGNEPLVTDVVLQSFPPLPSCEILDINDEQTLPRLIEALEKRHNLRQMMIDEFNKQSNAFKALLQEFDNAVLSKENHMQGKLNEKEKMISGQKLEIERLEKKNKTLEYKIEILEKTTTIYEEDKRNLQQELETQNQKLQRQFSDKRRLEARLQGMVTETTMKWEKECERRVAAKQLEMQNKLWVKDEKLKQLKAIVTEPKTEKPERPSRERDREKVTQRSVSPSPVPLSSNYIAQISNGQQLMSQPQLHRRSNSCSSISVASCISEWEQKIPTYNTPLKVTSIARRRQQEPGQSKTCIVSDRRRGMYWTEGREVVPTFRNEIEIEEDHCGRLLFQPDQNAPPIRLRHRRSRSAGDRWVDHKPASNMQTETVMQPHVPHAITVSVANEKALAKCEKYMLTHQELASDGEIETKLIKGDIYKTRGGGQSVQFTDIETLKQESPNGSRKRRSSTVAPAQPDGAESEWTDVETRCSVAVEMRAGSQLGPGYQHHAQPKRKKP
As to the kind of experiment: Inhibition of microtubule-stimulated ATPase activity of human MKLP-1 at 200 uM by pyruvate kinase/lactate dehydrogenase-linked assay.

For orientation: half-life means how long it takes for the measured level to halve. Read a high half-life as slow decline. The term inhibition denotes the drop in the measured response relative to a control, in per cent. Turning to `CCCCCC(=O)Cc1cc(O)cc2c1C(=O)Oc1cc(O)c(C(=O)O)c(CCCCC)c1O2` [PHYSODIC ACID], in series [1], the half-life at 3 µM came to 22.5 min. This compound also gave an inhibition in series [2] of 40%.
